Measured values from patent publication US20100168041A1, “COMBINATION OF MONOSACCHARIDES AND DESQUAMATING AGENTS, AND USE THEREOF” (L'OREAL, priority 2008, published 2010).

What was measured:
[1] = test system: keratinocytes (HaCat line); test: Proliferation of keratinocytes (Cyquant, Nile red, XTT markers); format: cell-based; conditions: keratinocytes cultured in medium depleted in growth factors, vs untreated control
Description: The keratinocytes (HaCat line) are cultured under two conditions: whole defined culture medium (standard condition) and culture medium deficient in growth factors. This deficient medium gives rise to a controlled delay in cell proliferation. Under these conditions, it is then possible to measure the effects of compounds capable of compensating for the deficiency in growth factors of the culture medium and thus of relaunching the cell multiplication and/or of stimulating cell metabolism.
The keratinocyte proliferation is measured by means of three markers on the same cell population: the level of DNA, which is proportional to the number of cells (Cyquant probe), the level of constituent polar lipids of cell membranes (Nile red probe) and the mitochondrial respiration, which reflects the general cell metabolism (XTT probe).

[2] = test system: dermal fibroblasts of the reconstructed skin; test: Proliferation of fibroblasts in whole reconstructed skin (propidium iodide count); format: cell-based, human; conditions: 5 mM, within 48 hours of treatment
Description: Rhamnose was studied on a model of whole reconstructed skin in order to measure its anti-ageing efficacy on the dermal compartment.
Briefly, the model of reconstructed skin used is that described by Bell et al. (Bell E. et al., The reconstitution of living skin, J. Invest. Dermatol., 1983, July; 81): it includes a dermal equivalent on which is reconstructed a multistratified epidermis; the dermal equivalent is manufactured from acid-soluble collagen, culture medium containing serum and normal adult human fibroblasts. After 5 days of shrinkage, this equivalent is inoculated with keratinocytes and then cultured for 6 days in immersion and for 7 days in emersion in order to obtain a multistratified and differentiated epidermis having a horny layer.
The reconstructed skin is treated with 5 mM rhamnose for 2 days and 5 days in the culture medium; after the treatment, the reconstructed skins are included in Tissue Tek in order to produce frozen sections 7 μm thick with a cryostat. […] Three frozen sections are prepared at random on each reconstructed skin; on each section, two microscopic fields (25× objective lens) are analysed by fluorescence microscopy and photographed. The dermal fibroblasts are thus counted for each reconstructed skin on six images in total representing the six microscopic fields considered. […]

type I procollagen = test: Synthesis of procollagen 1 in reconstructed skin (indirect immunofluorescence); format: cell-based, human; conditions: for procollagen 1 synthesis: reconstructed skin
Description: Conventional detection via indirect immunofluorescence of type I procollagen in the dermis of the reconstructed skin was also performed on other series of frozen sections (anti-procoll 1 antibody (MAB 1912 Millipore)+FTIC-coupled conjugate (112-095-068 Jackson Immunoresearch)). In order to obtain bearings within the cutaneous architecture during the microscopic examination of the sections, the cell nuclei of the keratinocytes and fibroblasts are localized by staining them with propidium iodide, as described above. Three frozen sections are prepared at random on each reconstructed skin and on each section, and two microscopic fields (25× objective lens) are analysed by fluorescence microscopy and photographed. The levels of fluorescence proportional to the amount of type I procollagen are compared between the control skin and the skin treated with rhamnose.

## C[C@H](O)[C@H](O)[C@@H](O)[C@@H](O)C=O [rhamnose, Rhamnose]
[1]
  keratinocyte proliferation: activate keratinocyte proliferation
[2]
  growth of the dermal fibroblasts: induces stimulation of growth
Type I procollagen; 1 mM for 120 hours
  green fluorescence (proportional to amount of type I procollagen) vs control skin: marked increase
  synthesis of type I procollagen by the fibroblasts: greatly stimulated
Type I procollagen; 1 mM
  procollagen 1 synthesis: stimulation of procollagen 1 synthesis
Type I procollagen; 5 mM
  procollagen 1 synthesis: stimulation of procollagen 1 synthesis
